Laboratory results from PubChem BioAssay AID1963841 (Molecular Pharmacology Branch, DTP, NCI, 2024).

System: 439559-082-T-J2-PDC spheroid viability
Assay: Anticancer human tumor 439559-082-T-J2-PDC patient-derived colon adenocarcinoma cell line growth inhibition [POLQ]
Settings: spheroids with HUVEC and MSC; for IC50: curve of first compound; for viability, T/C: stronger effect = lower value
In short: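 Complex spheroid viability model combining PDC tumour cells with endothelial (HUVEC) and MSC stromal cells. Novobiocin, ART-558 or RP6685 were tested singly and in combination with standard and investigational anticancer drugs. Each was titrated in half-log steps from near clinical Cmax, or from 10 microM where Cmax was unknown.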
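Further: spheroids exposed to compounds for seven days before readout.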
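Wherever viability, T/C is given: 100% = DMSO vehicle control viability.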

For `CC[C@@]1(O)C(=O)OCc2c1cc1n(c2=O)Cc2cc3c(CN(C)C)c(O)ccc3nc2-1` + Cc1cccc(N(C)C(=O)C2C(O)CCN2c2nc(C)cc(C(F)(F)F)c2C#N)c1, the IC50 (second compound 0.0316 µM) was over 100 nM, the IC50 (second compound 0.1 µM) was over 100 nM and the IC50 (second compound 0.316 µM) was over 100 nM. It also gave an IC50 (second compound 1 µM) of over 100 nM, an IC50 (second compound 3.16 µM) of over 100 nM and an IC50 (second compound 10 µM) of over 100 nM. For the same compound, the viability, T/C (second compound 0.0316 µM, first compound 0.000316 µM) was 94.1%, the viability, T/C (second compound 0.0316 µM, first compound 0.001 µM) was 101% and the viability, T/C (second compound 0.0316 µM, first compound 0.00316 µM) was 96%. The viability, T/C (second compound 0.0316 µM, first compound 0.01 µM) was 97.2%, the viability, T/C (second compound 0.0316 µM, first compound 0.0316 µM) was 92.2% and the viability, T/C (second compound 0.0316 µM, first compound 0.1 µM) was 85%. It also gave a viability, T/C (second compound 0.1 µM, first compound 0.000316 µM) of 113%, a viability, T/C (second compound 0.1 µM, first compound 0.001 µM) of 105% and a viability, T/C (second compound 0.1 µM, first compound 0.00316 µM) of 93.7%. The viability, T/C (second compound 0.1 µM, first compound 0.01 µM) was 103%, the viability, T/C (second compound 0.1 µM, first compound 0.0316 µM) was 97.3% and the viability, T/C (second compound 0.1 µM, first compound 0.1 µM) was 79.1%. It also gave a viability, T/C (second compound 0.316 µM, first compound 0.000316 µM) of 98.1%, a viability, T/C (second compound 0.316 µM, first compound 0.001 µM) of 112% and a viability, T/C (second compound 0.316 µM, first compound 0.00316 µM) of 94.9%. The viability, T/C (second compound 0.316 µM, first compound 0.01 µM) was 89.8%, the viability, T/C (second compound 0.316 µM, first compound 0.0316 µM) was 84.9% and the viability, T/C (second compound 0.316 µM, first compound 0.1 µM) was 83.4%. It also gave a viability, T/C (second compound 1 µM, first compound 0.000316 µM) of 104%, a viability, T/C (second compound 1 µM, first compound 0.001 µM) of 96.5% and a viability, T/C (second compound 1 µM, first compound 0.00316 µM) of 93.1%. The viability, T/C (second compound 1 µM, first compound 0.01 µM) was 93%, the viability, T/C (second compound 1 µM, first compound 0.0316 µM) was 90.3% and the viability, T/C (second compound 1 µM, first compound 0.1 µM) was 80.9%. It also gave a viability, T/C (second compound 3.16 µM, first compound 0.000316 µM) of 96.2%, a viability, T/C (second compound 3.16 µM, first compound 0.001 µM) of 101% and a viability, T/C (second compound 3.16 µM, first compound 0.00316 µM) of 98.9%. It also gave a viability, T/C (second compound 3.16 µM, first compound 0.01 µM) of 93.5%, a viability, T/C (second compound 3.16 µM, first compound 0.0316 µM) of 89.9% and a viability, T/C (second compound 3.16 µM, first compound 0.1 µM) of 76.5%. The viability, T/C (second compound 10 µM, first compound 0.000316 µM) was 93.2%, the viability, T/C (second compound 10 µM, first compound 0.001 µM) was 89.4% and the viability, T/C (second compound 10 µM, first compound 0.00316 µM) was 92.8%. For the same compound, the viability, T/C (second compound 10 µM, first compound 0.01 µM) was 91.6%, the viability, T/C (second compound 10 µM, first compound 0.0316 µM) was 90.3% and the viability, T/C (second compound 10 µM, first compound 0.1 µM) was 75%.
